According to ChEMBL document CHEMBL5385856, “Novel 1,4,5,6-tetrahydrocyclopenta[d]imidazole-5-carboxamide-based JNK3 inhibitors: Design, synthesis, molecular docking, and therapeutic potential in neurodegenerative diseases” (Eur J Med Chem, 2023):

Tests used:
[1] = target: Mitogen-activated protein kinase 10 (Homo sapiens, UniProt P53779); assay: Inhibition of JNK3 (unknown origin) using ATF2 as substrate incubated for 40 mins in presence of [gamma33P]ATP by scintillation counting analysis
Cortical neurone = assay: cells; settings: Rattus norvegicus, 120 h, read-out: Activity
[2] = target: Mitogen-activated protein kinase 9 (Homo sapiens, UniProt P45984); assay: Inhibition of JNK2 (unknown origin) incubated for 20 mins in presence of 33P-ATP
[3] = target: Mitogen-activated protein kinase 8 (Homo sapiens, UniProt P45983); assay: Inhibition of JNK1 (unknown origin) incubated for 20 mins in presence of 33P-ATP
[4] = target: Glycogen synthase kinase-3 beta (Homo sapiens, UniProt P49841); assay: Inhibition of GSK3beta (unknown origin) incubated for 20 mins in presence of 33P-ATP
[5] = target: Mitogen-activated protein kinase 14 (Homo sapiens, UniProt Q16539); assay: Inhibition of p38alpha (unknown origin) incubated for 20 mins in presence of 33P-ATP
[6] = Selectivity ratio of IC50 for inhibition of JNK1 (unknown origin) to IC50 for inhibition of JNK3 (unknown origin)

Mitogen-activated protein kinase 8, sequence (P45983 whole entry): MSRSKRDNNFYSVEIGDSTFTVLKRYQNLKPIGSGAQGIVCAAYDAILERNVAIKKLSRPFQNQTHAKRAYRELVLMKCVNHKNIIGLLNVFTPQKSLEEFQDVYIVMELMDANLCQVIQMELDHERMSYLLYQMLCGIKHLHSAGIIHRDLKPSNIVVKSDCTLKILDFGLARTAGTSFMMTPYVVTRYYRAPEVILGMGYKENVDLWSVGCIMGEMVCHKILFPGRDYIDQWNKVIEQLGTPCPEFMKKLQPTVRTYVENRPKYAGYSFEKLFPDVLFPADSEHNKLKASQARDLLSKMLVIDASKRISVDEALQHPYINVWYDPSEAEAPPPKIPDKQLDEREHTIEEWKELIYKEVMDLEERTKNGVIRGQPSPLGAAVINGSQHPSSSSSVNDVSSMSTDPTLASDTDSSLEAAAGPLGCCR
Glycogen synthase kinase-3 beta, sequence (P49841 whole entry): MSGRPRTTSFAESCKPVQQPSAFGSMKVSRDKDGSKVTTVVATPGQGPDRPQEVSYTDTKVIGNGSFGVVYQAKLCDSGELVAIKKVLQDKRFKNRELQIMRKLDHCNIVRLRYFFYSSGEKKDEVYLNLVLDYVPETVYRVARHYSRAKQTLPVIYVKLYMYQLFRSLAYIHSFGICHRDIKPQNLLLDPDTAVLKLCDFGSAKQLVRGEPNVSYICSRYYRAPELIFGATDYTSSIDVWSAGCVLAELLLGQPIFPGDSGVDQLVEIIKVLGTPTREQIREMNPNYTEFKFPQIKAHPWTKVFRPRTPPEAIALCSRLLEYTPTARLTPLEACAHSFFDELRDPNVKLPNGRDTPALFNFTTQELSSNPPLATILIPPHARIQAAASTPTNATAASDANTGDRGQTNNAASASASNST
Mitogen-activated protein kinase 10, sequence (P53779 whole entry): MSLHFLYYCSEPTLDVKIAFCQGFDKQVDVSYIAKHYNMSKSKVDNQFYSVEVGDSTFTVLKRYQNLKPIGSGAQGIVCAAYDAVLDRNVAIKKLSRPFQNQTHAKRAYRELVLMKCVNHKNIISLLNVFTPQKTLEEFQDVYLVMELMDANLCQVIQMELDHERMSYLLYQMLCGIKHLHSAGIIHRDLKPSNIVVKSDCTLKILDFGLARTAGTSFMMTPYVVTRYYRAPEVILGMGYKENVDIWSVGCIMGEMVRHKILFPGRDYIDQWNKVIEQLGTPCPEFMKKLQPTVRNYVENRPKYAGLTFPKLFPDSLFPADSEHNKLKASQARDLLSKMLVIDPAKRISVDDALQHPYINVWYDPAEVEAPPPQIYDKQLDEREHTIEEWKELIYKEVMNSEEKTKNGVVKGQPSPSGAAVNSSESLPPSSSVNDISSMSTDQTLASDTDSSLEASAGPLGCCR
Mitogen-activated protein kinase 9, sequence (P45984 whole entry): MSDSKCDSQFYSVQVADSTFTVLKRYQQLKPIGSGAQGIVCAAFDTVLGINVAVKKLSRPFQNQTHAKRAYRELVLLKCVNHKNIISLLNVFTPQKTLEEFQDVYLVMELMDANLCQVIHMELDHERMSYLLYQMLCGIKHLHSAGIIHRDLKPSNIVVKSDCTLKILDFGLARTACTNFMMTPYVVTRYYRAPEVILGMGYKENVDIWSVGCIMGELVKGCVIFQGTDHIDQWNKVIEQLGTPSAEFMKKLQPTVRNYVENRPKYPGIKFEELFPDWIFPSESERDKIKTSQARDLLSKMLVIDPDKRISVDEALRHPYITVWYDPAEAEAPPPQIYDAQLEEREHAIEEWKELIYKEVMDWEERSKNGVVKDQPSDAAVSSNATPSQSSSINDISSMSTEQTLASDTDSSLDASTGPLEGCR
Mitogen-activated protein kinase 14, sequence (Q16539 whole entry): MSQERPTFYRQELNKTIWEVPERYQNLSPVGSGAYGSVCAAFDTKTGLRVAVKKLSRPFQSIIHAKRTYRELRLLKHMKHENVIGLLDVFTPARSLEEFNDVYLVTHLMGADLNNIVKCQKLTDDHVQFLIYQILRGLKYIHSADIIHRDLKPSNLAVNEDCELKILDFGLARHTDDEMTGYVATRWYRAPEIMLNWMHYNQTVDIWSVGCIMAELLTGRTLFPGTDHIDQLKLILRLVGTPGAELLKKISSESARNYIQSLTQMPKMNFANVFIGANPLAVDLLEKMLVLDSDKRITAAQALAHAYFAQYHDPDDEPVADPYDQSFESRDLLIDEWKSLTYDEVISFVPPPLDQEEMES

SMILES	IC50 [1] [nM]	also measured
CCOC(=O)C1Cc2nc(-c3ccc(F)c(C(F)(F)F)c3)n(-c3ccnc(N[C@H]4CCN(C(=O)C5CC5)C4)n3)c2C1 (stereo partly specified)	453	–
CCOC(=O)C1Cc2nc(-c3ccc(Cl)c(Cl)c3)n(-c3ccnc(N[C@H]4CCCN(C(=O)C5CC5)C4)n3)c2C1 (stereo partly specified)	1.11	viability at 10 µM (Cortical neurone): 63.2%; IC50 [2]: 14.8 nM; IC50 [3]: 158 nM; IC50 [4]: 4860 nM; IC50 [5]: 285 nM
NC(=O)C1Cc2nc(-c3ccc4c(c3)CCO4)n(-c3ccnc(N[C@@H]4CCCN(C(=O)C5CC5)C4)n3)c2C1 (stereo partly specified)	8.92	–
NC(=O)C1Cc2nc(-c3ccc4c(c3)CCO4)n(-c3ccnc(N[C@H]4CCN(C(=O)C5CC5)C4)n3)c2C1 (stereo partly specified)	87.3	–
CNC(=O)C1Cc2nc(-c3ccc4c(c3)OCO4)n(-c3ccnc(N[C@@H]4CCN(C(=O)C5CC5)C4)n3)c2C1 (stereo partly specified)	93.9	–
CNC(=O)C1Cc2nc(-c3ccc(F)c(C(F)(F)F)c3)n(-c3ccnc(N[C@@H]4CCN(C(=O)C5CC5)C4)n3)c2C1 (stereo partly specified)	300	–
NC(=O)C1Cc2nc(-c3ccc(Cl)c(Cl)c3)n(-c3ccnc(N[C@@H]4CCN(C(=O)C5CC5)C4)n3)c2C1 (stereo partly specified)	16.4	–
NC(=O)C1Cc2nc(-c3ccc4ccccc4c3)n(-c3ccnc(N[C@@H]4CCN(C(=O)C5CC5)C4)n3)c2C1 (stereo partly specified)	24.9	–
CCOC(=O)C1Cc2nc(-c3ccc4c(c3)CCO4)n(-c3ccnc(N[C@@H]4CCN(C(=O)C5CC5)C4)n3)c2C1 (stereo partly specified)	21.5	–
CCOC(=O)C1Cc2nc(-c3ccc4ccccc4c3)n(-c3ccnc(N[C@H]4CCN(C(=O)C5CC5)C4)n3)c2C1 (stereo partly specified)	23.4	–
NC(=O)C1Cc2nc(-c3ccc(F)c(C(F)(F)F)c3)n(-c3ccnc(N[C@@H]4CCN(C(=O)C5CC5)C4)n3)c2C1 (stereo partly specified)	300	–
NC(=O)C1Cc2nc(-c3ccc4c(c3)CCO4)n(-c3ccnc(N[C@@H]4CCN(C(=O)C5CC5)C4)n3)c2C1 (stereo partly specified)	63	–
CCOC(=O)C1Cc2nc(-c3ccc4c(c3)OCO4)n(-c3ccnc(N[C@@H]4CCCN(C(=O)C5CC5)C4)n3)c2C1 (stereo partly specified)	1.2	–
CCOC(=O)C1Cc2nc(-c3ccc(F)c(C(F)(F)F)c3)n(-c3ccnc(N[C@H]4CCCN(C(=O)C5CC5)C4)n3)c2C1 (stereo partly specified)	52.8	–
NC(=O)C1Cc2nc(-c3ccc4ccccc4c3)n(-c3ccnc(N[C@H]4CCN(C(=O)C5CC5)C4)n3)c2C1 (stereo partly specified)	14.8	–
NC(=O)C1Cc2nc(-c3ccc(F)c(C(F)(F)F)c3)n(-c3ccnc(N[C@@H]4CCCN(C(=O)C5CC5)C4)n3)c2C1 (stereo partly specified)	104	–
CCOC(=O)C1Cc2nc(-c3ccc4c(c3)OCO4)n(-c3ccnc(N[C@H]4CCN(C(=O)C5CC5)C4)n3)c2C1 (stereo partly specified)	243	–
CCOC(=O)C1Cc2nc(-c3ccc(Cl)c(Cl)c3)n(-c3ccnc(N[C@@H]4CCCN(C(=O)C5CC5)C4)n3)c2C1 (stereo partly specified)	0.607	IC50 [2]: 8.56 nM; IC50 [3]: 82.8 nM; IC50 [4]: 195 nM; IC50 [5]: 53.2 nM
CCOC(=O)C1Cc2nc(-c3ccc(F)c(C(F)(F)F)c3)n(-c3ccnc(N[C@@H]4CCN(C(=O)C5CC5)C4)n3)c2C1 (stereo partly specified)	63.1	–
NC(=O)C1Cc2nc(-c3ccc4c(c3)CCO4)n(-c3ccnc(N[C@H]4CCCN(C(=O)C5CC5)C4)n3)c2C1 (stereo partly specified)	9.06	viability at 10 µM (Cortical neurone): 53%
CNC(=O)C1Cc2nc(-c3ccc(Cl)c(Cl)c3)n(-c3ccnc(N[C@H]4CCCN(C(=O)C5CC5)C4)n3)c2C1 (stereo partly specified)	1.2	IC50 [2]: 15.4 nM; IC50 [3]: 86.5 nM; Ratio IC50 [6]: 100; IC50 [4]: > 10000 nM; IC50 [5]: 532 nM
CNC(=O)C1Cc2nc(-c3ccc(Cl)c(Cl)c3)n(-c3ccnc(N[C@@H]4CCCN(C(=O)C5CC5)C4)n3)c2C1 (stereo partly specified)	4.83	–
CNC(=O)C1Cc2nc(-c3ccc4c(c3)OCO4)n(-c3ccnc(N[C@H]4CCN(C(=O)C5CC5)C4)n3)c2C1 (stereo partly specified)	180	–
NC(=O)C1Cc2nc(-c3ccc4c(c3)OCO4)n(-c3ccnc(N[C@@H]4CCN(C(=O)C5CC5)C4)n3)c2C1 (stereo partly specified)	103	–
CCOC(=O)C1Cc2nc(-c3ccc(F)c(C(F)(F)F)c3)n(-c3ccnc(N[C@@H]4CCCN(C(=O)C5CC5)C4)n3)c2C1 (stereo partly specified)	65.4	–
CNC(=O)C1Cc2nc(-c3ccc(Cl)c(Cl)c3)n(-c3ccnc(N[C@@H]4CCN(C(=O)C5CC5)C4)n3)c2C1 (stereo partly specified)	9.36	–
